The test system of the assay is DU145 cells. Kind of assay: Flow cytometric analysis of cell cycle (propidium iodide) in DU145. Format: cell-based, human. How it is done: FIG. 9. Effect of compound I-1 at 5 μM on cell cycle and apoptosis. Cells were then harvested by trypsinization. (A) For flow cytometric analysis of cell cycle parameters, cells were fixed, and stained with propidium iodide. Each histogram indicates the percent of cells in G1, S, and G2/M phases of the cell cycle. Data were gated to exclude apoptotic cells for these calculations. (B) For apoptosis detection, cells were incubated with FITC-conjugated Annexin V and propidium iodide. Flow cytometric analysis was performed and the histogram for each sample was split into four quadrants to indicate: viable cells (lower left quadrant), apoptotic cells (lower right quadrant), necrotic cells (upper left quadrant), and necrotic/late apoptotic cells (upper right quadrant).
FIG. 10. Flow cytometric analysis of cell cycle parameters. DU145 prostate cancer cells were incubated for 24 h (A) or for 48 h (B) in the presence of 10 μM compound I-1 or vehicle (DMSO), or without additive (untreated). Cells were then harvested by trypsinization, fixed, and stained with propidium iodide for analysis by flow cytometry. Each histogram indicates the percent of cells in G1, S, and G2/M phases of the cell cycle. Data were gated to exclude apoptotic cells for these calculations. A small population of aneuploid cells with >4n DNA content, which became apparent in the cells treated with compound I-1, is also indicated (percentage underlined).
Flow cytometric assays of cell cycle and cell death. Cells in fresh complete medium were plated (2×10^5 per well) into six-well plates for 18 h. After complete adhesion, cells were treated as indicated in the figures and harvested by trypsinization. For cell cycle distribution, cells were fixed, and stained with propidium iodide using the Cycle Test Plus kit (Becton Dickinson). For cell death detection, cells were stained with Annexin-V-FITC and propidium iodide using the Apoptosis Detection Kit (BD Biosciences), according to the manufacturer's instructions. Cells were then analyzed by flow cytometry using a FACScalibur cytometer (BD Biosciences, Mountain View, Calif.) and FlowJo program (Tree Star, Inc., Ashland, Oreg.).
A general note: A flow cytometer gives signals particle by particle.

This is an account of results in patent publication US9492428B2, “Compounds, compositions, pharmaceutical compositions, and methods of use” (University of Louisville Research Foundation, Inc., priority 2011, dated 2016).

With `C[C@@H]1CC[C@H]2C3C(O[C@]4([C@]5(O)CC6(C)C(=O)OC5C[C@@]6(C)O)CC[C@@]31O4)[C@H]1O[C@]13CC=CC(=O)[C@]23C` (stereo partly shown) [I-1], the cell cycle parameters entry (5 μM) is given as “not perturbed”. Further, the “population of aneuploid cells that contain more than 4n DNA” value (10 μM) is “additional peak to the right of the G2/M peak”. In addition, for the setting “10 μM, 24 h”, the “fraction of cells in phase” value came out at 8%, the “proportion of cells in G2/M phases” value is listed as 49% and the “proportion of cells in S phase” value is 37%. In addition, under “10 μM, 48 h”, the “fraction of cell in G2/M” value was found to be 66% and the “percentage of cells in S phase” value is “decreased”.
